Experimental data published in PubChem BioAssay (NCI).
Values joined by “and” are separate entries in the source; they are usually repeats but may differ in a detail not shown here. Equal values may be shown once.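 Tested at 5 concentrations; 48 h exposure; 96-well plates; endpoints linearly interpolated, else capped at highest concentration. GI50: concentration for 50% inhibition of growth. TGI: total growth inhibition.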

Legend:
Test in all cases: growth of human tumour cells (NCI), 48 h
SW-620 colon = test system: SW-620 colon
PC-3 prostate = test system: PC-3 prostate
SK-MEL-2 melanoma = test system: SK-MEL-2 melanoma
RXF 393 renal = test system: RXF 393 renal
CCRF-CEM leukemia = test system: CCRF-CEM leukemia
SN12C renal = test system: SN12C renal
SF-295 CNS = test system: SF-295 CNS
786-0 renal = test system: 786-0 renal
MOLT-4 leukemia = test system: MOLT-4 leukemia
NCI-H460 lung = test system: NCI-H460 lung

SMILES | TGI (SW-620 colon) | TGI (PC-3 prostate) | TGI (SK-MEL-2 melanoma) | TGI (RXF 393 renal) | TGI (CCRF-CEM leukemia) | TGI (SN12C renal) | TGI (SF-295 CNS) | TGI (786-0 renal) | TGI (MOLT-4 leukemia) | TGI (NCI-H460 lung) | GI50 (SW-620 colon) | GI50 (PC-3 prostate) | GI50 (SK-MEL-2 melanoma) | GI50 (RXF 393 renal) | GI50 (CCRF-CEM leukemia) | GI50 (SN12C renal) | GI50 (SF-295 CNS) | GI50 (786-0 renal) | GI50 (MOLT-4 leukemia) | GI50 (NCI-H460 lung)
CC1(C)C(=O)/C=C\C(=O)C(C)(C)C2=CC=C(O2)C(C)(C)C(=O)C(Br)C(Br)C(=O)C(C)(C)C2=CC=C1O2 (stereo not given) | 31.1 µM | > 100 µM | > 100 µM | > 83.8 µM | 11.2 µM | > 100 µM | > 100 µM | > 100 µM | 30.6 µM | > 100 µM | – | – | – | – | – | – | – | – | – | –
c1cc(OCCN2CCCC2)ccc1CNc1ccc2nc(CCC3CCCCC3)[nH]c2c1 | 3.96 µM | 5.16 µM | 3.55 µM | 3.23 µM | 6.9 µM | 8.21 µM | 3.86 µM | 3.27 µM | 5.81 µM | 4.87 µM | 1.85 µM | 1.93 µM | 1.84 µM | 1.32 µM | 1.47 µM | 2.08 µM | 1.97 µM | 1.57 µM | 1.76 µM | 2.13 µM
CCCCCN(CCCCC)CCC[C@@H](C)[C@H]1CC[C@H]2[C@@H]3[C@H](OCCCN)C[C@@H]4C[C@H](OCCCN)CC[C@]4(C)[C@H]3C[C@H](OCCCN)[C@]12C | 20.2 µM | 24.8 µM | 31.3 µM | 32.7 µM | 20.5 µM | 18.8 µM | 21.8 µM | 24 µM | 14.4 µM | 17.3 µM | 4.79 µM | 11.6 µM | 15.1 µM | 11.9 µM | 4.47 µM | 4.33 µM | 3.03 µM | 8.26 µM | 3.85 µM | 2.79 µM
COc1cc2c3c(n(CCCN=[N+]=[N-])c(=O)c2cc1OC)-c1ccc(F)cc1C3=O | > 100 µM | > 100 µM | > 100 µM | > 100 µM | 5.79 µM | > 100 µM | 7.97 µM | 14.7 µM | 28.5 µM | 13.3 µM | 6.29 µM | 6.63 µM | > 100 µM | > 100 µM | 1.99 µM | 8.26 µM | 2.62 µM | 2.88 µM | 2.7 µM | 1.87 µM
COc1ccc(Sc2[nH]c(C=O)c3ccccc23)cc1 | 16.4 µM | 41.4 µM | 32.4 µM | 33.3 µM | 22.3 µM | 33.1 µM | 26.9 µM | 26.1 µM | 19 µM | 11.2 µM | 3.72 µM | 13.3 µM | 13.6 µM | 10.7 µM | 5.66 µM | 14.9 µM | 9.16 µM | 12 µM | 1.31 µM | 2.94 µM
O=C(Nc1ccc(I)cc1F)c1cc(Br)ccc1O | 9.47 µM | 7.13 µM | 2.18 µM | 3.6 µM | 19.5 µM | 4.09 µM | 3.39 µM | 5.5 µM | 5.6 µM | 8.05 µM | 0.849 µM | 1.77 µM | 0.386 µM | 0.778 µM | 1.01 µM | 0.416 µM | 1.73 µM | 2.19 µM | 1.39 µM | 0.452 µM
CCCCN(CCCC)P(=O)(Oc1ccccc1)Oc1ccccc1 | 19.4 µM | 17.6 µM | 28 µM | 5.97 µM | 59.3 µM | 19.7 µM | 16.1 µM | 25.2 µM | 38.4 µM | 18.9 µM | 5.41 µM | 3.79 µM | 11.8 µM | 1.85 µM | 8.35 µM | 5.53 µM | 3.49 µM | 12.3 µM | 6.18 µM | 5.24 µM
CC(C)[C@@]12C[C@@H](OC(=O)C3CO3)[C@@](C)(O1)[C@@H]1CC[C@@H](C)[C@H]1[C@@H]2OC(=O)/C=C/c1ccccc1 (stereo not given in full) | 39.3 µM | 61 µM | 42.8 µM | 22.4 µM | > 100 µM | 32.5 µM | 32.2 µM | 29.5 µM | > 100 µM | 34.2 µM | 18.5 µM | 17.4 µM | 19.1 µM | 7.86 µM | 29 µM | 11.9 µM | 16.9 µM | 14 µM | 24.7 µM | 17.2 µM
CC[C@]12CN3CCc4c([nH]c5ccccc45)[C@@](C(=O)OC)(c4cc5c(cc4OC)N(C)[C@H]4[C@@](O)(C(=O)OC)[C@H](OC(C)=O)[C@]6(CC)C=CCN7CC[C@]54[C@@H]76)CC(C3)[C@H]1O2 (stereo not given in full) | > 100 µM | > 100 µM | – | > 100 µM | > 50 µM | 15.4 µM and > 50 µM | > 12.3 µM | > 100 µM | > 100 µM | 10.9 µM and > 27.4 µM | 0.155 µM | 0.222 µM | 0.0434 µM | – | 0.116 µM | 0.408 µM | – | 1.3 µM | 0.236 µM | 0.167 µM
CCOC(=O)c1c(NN2CCN(CC(F)(F)F)CC2)oc(/C=C2\C=Nc3ncccc32)c1O | 22.9 µM | 21.4 µM | 4.8 µM | 4.19 µM | > 100 µM | 42.6 µM | 37.4 µM | 18.8 µM | 9.37 µM | 20.2 µM | 0.808 µM | 4.04 µM | 2.25 µM | 1.2 µM | 6.81 µM | 4.26 µM | 8.47 µM | 3.13 µM | 2.79 µM | 3.49 µM
COc1ccc(-c2cnc(-c3ccc(OC)cc3)n2-c2cc(OC)c(OC)c(OC)c2)cc1 | > 100 µM | > 100 µM | > 100 µM | 35.9 µM | > 100 µM | 56.7 µM | 61.1 µM | 61.4 µM | 0.044 µM | > 100 µM | > 100 µM | 29.4 µM | 32.3 µM | 14 µM | > 100 µM | 20.8 µM | 22.1 µM | 24.2 µM | 0.0131 µM | 30.7 µM
CCn1nc(C2CCN(C(=O)CCO)CC2)nc1-c1cnc(N)c(-c2nnc(C(C)(C)C)o2)n1 | > 100 µM | > 100 µM | > 100 µM | 20.9 µM | > 100 µM | > 100 µM | > 100 µM | > 100 µM | 39.2 µM | > 100 µM | 18.3 µM | 3.2 µM | 30.9 µM | 2.45 µM | 18.2 µM | 6.34 µM | 3.27 µM | 3.11 µM | 2.33 µM | 3.9 µM
N#Cc1c(N)nc2c(c1-c1ccc(Cl)cc1)COc1ccc(F)cc1-2 | 97.4 µM | 65.7 µM | 64.2 µM | > 100 µM | > 100 µM | 47.7 µM | 37.1 µM | 72.8 µM | 44.6 µM | > 100 µM | 31.1 µM | 29.7 µM | 19 µM | 20.3 µM | 44.2 µM | 19.1 µM | 16 µM | 28.7 µM | 22.2 µM | 37.1 µM
CCOc1ccccc1/C=N\N=C(N/N=C/c1ccccc1OCC)N/N=C/c1ccccc1OCC | > 100 µM | > 100 µM | > 100 µM | > 100 µM | > 100 µM | > 100 µM | > 100 µM | > 100 µM | > 100 µM | > 100 µM | 3.24 µM | 2.06 µM | 2.78 µM | 2.67 µM | 3.21 µM | 2.32 µM | 2.41 µM | 2.71 µM | 4.69 µM | 1.35 µM
Cc1ccc(/C(=N/NS(=O)(=O)c2cc(C)c(Cl)cc2Cl)Sc2cc(Cl)c(C)cc2S(N)(=O)=O)cc1 | > 100 µM | > 100 µM | > 100 µM | > 100 µM | > 100 µM | > 100 µM | > 100 µM | > 100 µM | > 100 µM | > 100 µM | > 100 µM | > 100 µM | > 100 µM | 90.9 µM | > 100 µM | > 100 µM | > 100 µM | > 100 µM | 17.9 µM | > 100 µM
Clc1ccc(-c2cnc3c(-c4ccnc(N5CCNCC5)c4)cnn3c2)cc1 | 3.27 µM | 5.72 µM | 1.69 µM | 3.72 µM | 5.13 µM | 3.34 µM | 3.57 µM | 3.22 µM | 3.7 µM | 3.53 µM | 1.78 µM | 1.85 µM | 0.561 µM | 2.09 µM | 2.07 µM | 1.7 µM | 1.88 µM | 1.83 µM | 1.75 µM | 1.89 µM
COc1ccc2c(n1)Sc1nc3ccccc3nc1N2 | > 100 µM | > 100 µM | > 100 µM | > 100 µM | > 100 µM | 71.6 µM | > 100 µM | > 100 µM | 35.1 µM | > 100 µM | – | – | – | – | – | – | – | – | – | –
CCCCCCOC(=O)CC1=C(C)/C(=C/c2[nH]c(-c3ccc[nH]3)cc2OC)N=C1C | 1.35 µM | 1.78 µM | 0.23 µM | 1.07 µM | 1.56 µM | – | 0.466 µM | 1.16 µM | 1.46 µM | 1.39 µM | 0.0384 µM | 0.0487 µM | 0.0532 µM | 0.163 µM | 0.0256 µM | – | 0.12 µM | 0.0829 µM | 0.0436 µM | 0.355 µM
